# Results reported in patent US7612064B2, “Sulfopyrroles” (Takeda Pharmaceutical Company Limited, priority 2003, dated 2009).
# Experiments:
# [1] = tested on: MRC5; test: MTS proliferation assay; assay type: cell-based; details: MRC5, 72 h
# Summary of the method: (§1)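 Four-point treatment (0.3–10 μM final) ran 72 h in complete medium, with the compound-containing addition holding no more than 5% DMSO. Metabolic activity was then developed with MTS reagent over 3 h and quantified by absorbance (492 nm).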
# [2] = tested on: Jily; test: MTS proliferation assay; assay type: cell-based; details: 72 h
# Summary of the method: as §1
# [3] = tested on: HeLa; test: MTS proliferation assay; assay type: cell-based, human; details: 72 h
# Summary of the method: as §1
# [4] = tested on: Jurkat; test: MTS proliferation assay; assay type: cell-based, human; details: 72 h
# Summary of the method: as §1
# [5] = Hoechst 33342 nuclear staining; assay type: cell-based; details: for Hoechst 33342 nuclear staining score, H460: H460 cells; for Hoechst 33342 nuclear staining score, HeLa: HeLa cells; for Hoechst 33342 nuclear staining score, Jily: Jily cells; for Hoechst 33342 nuclear staining score, Jurkat: Jurkat cells; for Hoechst 33342 nuclear staining score, MRC5: MRC5 cells; as to Hoechst 33342 nuclear staining score, PBLs: key: 0: no activity; 1: weak activity comprising less than 50% of the cells; 2: strong activity comprising more than 50% of the cells;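 as to all read-outs here: apoptotic nuclei scored 0 none 1 weak under 50% of cells 2 strong over 50% of cells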
# Summary of the method: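 Cells were plated in 96 well tissue culture plates in 80 μl complete medium, with 3-5*10^3 cells per well for adherent lines and 8-10*10^3 for suspension lines. Adherent cells spread for 24 h before treatment, while suspension cells were treated right after seeding. Compounds were added in 20 μl complete medium containing max 5% DMSO.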
Structure (SMILES),IC50 [2] [nM],"Hoechst 33342 nuclear staining score, H460 ([5]; conc 0.1)","Hoechst 33342 nuclear staining score, H460 ([5]; conc 0.3)","Hoechst 33342 nuclear staining score, H460 ([5]; conc 1)","Hoechst 33342 nuclear staining score, H460 ([5]; conc 3)","Hoechst 33342 nuclear staining score, HeLa ([5]; conc 0.1)","Hoechst 33342 nuclear staining score, HeLa ([5]; conc 0.3)","Hoechst 33342 nuclear staining score, HeLa ([5]; conc 1)","Hoechst 33342 nuclear staining score, HeLa ([5]; conc 3)","Hoechst 33342 nuclear staining score, Jily ([5]; conc 0.1)","Hoechst 33342 nuclear staining score, Jily ([5]; conc 0.3)","Hoechst 33342 nuclear staining score, Jily ([5]; conc 1)","Hoechst 33342 nuclear staining score, Jily ([5]; conc 3)","Hoechst 33342 nuclear staining score, Jurkat ([5]; conc 0.1)","Hoechst 33342 nuclear staining score, Jurkat ([5]; conc 0.3)","Hoechst 33342 nuclear staining score, Jurkat ([5]; conc 1)","Hoechst 33342 nuclear staining score, Jurkat ([5]; conc 3)","Hoechst 33342 nuclear staining score, MRC5 ([5]; conc 0.1)","Hoechst 33342 nuclear staining score, MRC5 ([5]; conc 0.3)","Hoechst 33342 nuclear staining score, MRC5 ([5]; conc 1)",also measured
COc1cc(-c2cc(-c3cccnc3)cn2S(=O)(=O)c2cn(C)cn2)cc(OC)c1OC [Example 87],> 1000,0,0,0,0,0,0,0,0,0,0,0,0,0,0,0,0,0,0,0,"IC50 [1]: > 1000 nM; IC50 [3]: > 1000 nM; IC50 [4]: > 1000 nM; Hoechst 33342 nuclear staining score, MRC5 ([5]; conc 3): 0; Hoechst 33342 nuclear staining score, PBLs ([5]; conc 0.1): 0; Hoechst 33342 nuclear staining score, PBLs ([5]; conc 0.3): 0; Hoechst 33342 nuclear staining score, PBLs ([5]; conc 1): 0; Hoechst 33342 nuclear staining score, PBLs ([5]; conc 3): 0"
"COc1ccc(S(=O)(=O)n2cc(CNc3ccc(N4CCOCC4)cc3)cc2-c2cc(OC)c(OC)c(OC)c2)cc1 [Example 94, 1-p-Methoxyphenylsulfonyl-4-p-morpholinophenylaminomethyl-2-(3,4,5-trimethoxyphenyl)-pyrrole]",< 200,0,2 (strong activity comprising more than 50% of the cells),2 (strong activity comprising more than 50% of the cells),2 (strong activity comprising more than 50% of the cells),0,2 (strong activity comprising more than 50% of the cells),2 (strong activity comprising more than 50% of the cells),2 (strong activity comprising more than 50% of the cells),0,2 (strong activity comprising more than 50% of the cells),2 (strong activity comprising more than 50% of the cells),2 (strong activity comprising more than 50% of the cells),0,2 (strong activity comprising more than 50% of the cells),2 (strong activity comprising more than 50% of the cells),2 (strong activity comprising more than 50% of the cells),0,0,0,"IC50 ([1]; Homo sapiens): < 200 nM; IC50 ([3]; Homo sapiens): < 200 nM; IC50 ([4]; Homo sapiens): < 200 nM; Hoechst 33342 nuclear staining score, MRC5 ([5]; conc 3): 2 (strong activity comprising more than 50% of the cells); Hoechst 33342 nuclear staining score, PBLs ([5]; conc 0.1): 0; Hoechst 33342 nuclear staining score, PBLs ([5]; conc 0.3): 0; Hoechst 33342 nuclear staining score, PBLs ([5]; conc 1): 0; Hoechst 33342 nuclear staining score, PBLs ([5]; conc 3): 0"
COc1ccc(S(=O)(=O)n2cc(CNc3ccc(N4CCOCC4)cc3)cc2-c2cc(OC)ccc2OC)cc1 [Example 95],> 1000,0,0,0,2 (strong activity comprising more than 50% of the cells),0,0,0,2 (strong activity comprising more than 50% of the cells),0,0,0,2 (strong activity comprising more than 50% of the cells),0,0,0,2 (strong activity comprising more than 50% of the cells),0,0,0,"IC50 [1]: > 1000 nM; IC50 [3]: > 1000 nM; IC50 [4]: > 1000 nM; Hoechst 33342 nuclear staining score, MRC5 ([5]; conc 3): 0; Hoechst 33342 nuclear staining score, PBLs ([5]; conc 0.1): 0; Hoechst 33342 nuclear staining score, PBLs ([5]; conc 0.3): 0; Hoechst 33342 nuclear staining score, PBLs ([5]; conc 1): 0; Hoechst 33342 nuclear staining score, PBLs ([5]; conc 3): 0"
COc1cc(-c2cc(CNc3ccc(-c4nnn[nH]4)cc3)cn2S(=O)(=O)c2ccc(C)cc2)cc(OC)c1OC [Example 73],> 1000,0,0,0,2 (strong activity comprising more than 50% of the cells),0,0,0,0,0,0,0,1 (weak activity comprising less than 50% of the cells),0,0,0,2 (strong activity comprising more than 50% of the cells),0,0,0,"IC50 [1]: > 1000 nM; IC50 [3]: > 1000 nM; IC50 [4]: > 1000 nM; Hoechst 33342 nuclear staining score, MRC5 ([5]; conc 3): 0; Hoechst 33342 nuclear staining score, PBLs ([5]; conc 0.1): 0; Hoechst 33342 nuclear staining score, PBLs ([5]; conc 0.3): 0; Hoechst 33342 nuclear staining score, PBLs ([5]; conc 1): 0; Hoechst 33342 nuclear staining score, PBLs ([5]; conc 3): 0"
COc1cc(-c2cc(-c3cccnc3)cn2S(=O)(=O)c2c(Cl)cccc2Cl)cc(OC)c1OC [Example 85],> 1000,0,0,0,0,0,0,0,0,0,0,0,0,0,0,0,0,0,0,0,"IC50 [1]: > 1000 nM; IC50 [3]: > 1000 nM; IC50 [4]: > 1000 nM; Hoechst 33342 nuclear staining score, MRC5 ([5]; conc 3): 0; Hoechst 33342 nuclear staining score, PBLs ([5]; conc 0.1): 0; Hoechst 33342 nuclear staining score, PBLs ([5]; conc 0.3): 0; Hoechst 33342 nuclear staining score, PBLs ([5]; conc 1): 0; Hoechst 33342 nuclear staining score, PBLs ([5]; conc 3): 0"
